In patent US20240390340A1 (INCYTE CORPORATION, priority 2023, published 2024):
Where two headings read alike, the source gives them in different places.

How the values were obtained:
KRAS G12D = KRAS G12D (Homo sapiens, UniProt P01116, G12D); experiment: GDP-GTP exchange assay (bodipy-GDP/GppNHp, SOS1), KRAS G12D; assay type: biochemical
Experimental: (§1) The inhibitor potency of the exemplified compounds was determined in a fluorescence based guanine nucleotide exchange assay, which measures the exchange of bodipy-GDP (fluorescently labeled GOP) for GppNHp (Non-hydrolyzable GTP analog) to generate the active state of KRAS in the presence of SOS1 (guanine nucleotide exchange factor). Inhibitors were serially diluted in DMSO and a volume of 0.1 μL was transferred to the wells of a black low volume 384-well plate. 5 μL/well volume of bodipy-loaded KRAS G12D diluted to 2.5 nM in assay buffer (25 mM Hepes pH 7.5, 50 mM NaCl, 10 mM MgCl2 and 0.01% Brij-35) was added to the plate and pre-incubated with inhibitor for 4 h at r.t. Appropriate controls (enzyme with no inhibitor or with a G12D inhibitor) were included on the plate. The exchange was initiated by the addition of a 5 μL/well volume containing 1 mM GppNHp and 300 nM SOS1 in assay buffer. The 10 μL/well reaction concentration of the bodipy-loaded KRAS G12D, GppNHp, and SOS1 were 2.5 nM, 500 μM, and 150 nM, respectively. The reaction plates were incubated at r.t. for 2 h, a time estimated for complete GDP-GTP exchange in the absence of inhibitor. For the KRAS G12V mutant, similar guanine nucleotide exchange assays were used with 2.5 nM as final concentration for the bodipy loaded KRAS proteins and 3 h incubation after adding GppNHp-SOS1 mixture. A cyclic peptide described to selectively bind G12D mutant (Sakamoto et al., BBRC 484.3 (2017), 605-611) or internal compounds with confirmed binding were used as positive controls in the assay plates. Fluorescence intensities were measured on a PheraStar plate reader instrument (BMG Labtech) with excitation at 485 nm and emission at 520 nm.
(§2) Either GraphPad prism or Genedata Screener SmartFit was used to analyze the data. The IC50 values were derived by fitting the data to a four parameter logistic equation producing a sigmoidal dose-response curve with a variable Hill coefficient.
(§3) The symbol “†” indicates IC50≤100 nM, “††” indicates IC50>100 nM but ≤1 μM; and “†††” indicates IC50 is >1 μM but ≤5 μM, “††††” indicates IC50 is >5 μM but ≤10 μM. “NA” indicates IC50 not available.

KRAS G12V = KRAS G12V (Homo sapiens, UniProt P01116, G12V); experiment: GDP-GTP exchange assay (bodipy-GDP/GppNHp, SOS1), KRAS G12V; assay type: biochemical
Experimental: as §1, §2, §3

[1] = bodipy-loaded KRAS G12D 2.5 nM, 4 h pre-incubation, value for the most potent isomer quoted for certain compounds, read-out: G12D (KRAS G12D exchange assay IC50)
[2] = KRAS G12V mutant, value for the most potent isomer quoted for certain compounds, read-out: G12V (KRAS G12V exchange assay IC50)

Sequence of KRAS G12V (P01116 1-188 isoform P01116-2 G12V): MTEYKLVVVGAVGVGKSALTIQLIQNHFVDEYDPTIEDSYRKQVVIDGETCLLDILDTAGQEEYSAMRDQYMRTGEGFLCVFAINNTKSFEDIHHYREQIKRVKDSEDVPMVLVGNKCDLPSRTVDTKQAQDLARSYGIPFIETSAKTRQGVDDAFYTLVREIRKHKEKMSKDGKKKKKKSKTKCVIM
Sequence of KRAS G12D (P01116 1-188 isoform P01116-2 G12D): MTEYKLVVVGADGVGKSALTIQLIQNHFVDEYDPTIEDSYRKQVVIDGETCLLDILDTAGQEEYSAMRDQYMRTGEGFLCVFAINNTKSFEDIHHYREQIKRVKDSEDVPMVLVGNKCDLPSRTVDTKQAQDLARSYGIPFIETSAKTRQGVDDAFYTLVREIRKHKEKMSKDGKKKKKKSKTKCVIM

Row | Compound | IC50 (KRAS G12D; [1]) | IC50 (KRAS G12V; [2]) | IC50 (KRAS G12D; Table H, column G12D, for compounds isolated as several atropisomers/diastereoisomers the value for the most potent isomer is quoted, read-out: KRAS G12D exchange assay IC50) | IC50 (KRAS G12V; Table H, column G12V, for compounds isolated as several atropisomers/diastereoisomers the value for the most potent isomer is quoted, read-out: KRAS G12V exchange assay IC50)
1 | Cc1nc2c(F)c(-c3cccc(Cl)c3Cl)c(CCC#N)cc2c2c1cc([C@H]1C[C@H](OCc3nnn(C)c3C)CN1C(=O)C1CC1)n2[C@H]1[C@H]2CN[C@@H]1C2 [Example 234] | ≤ 100 nM | ≤ 100 nM | – | –
2 | Cc1nc2c(F)c(-c3cccc(Cl)c3Cl)c(CCC#N)cc2c2c1cc([C@H]1C[C@H](OCc3cnn(C(F)(F)F)c3)CN1C(=O)C1CC1)n2[C@H]1[C@H]2CN[C@@H]1C2 [Example 311] | ≤ 100 nM | ≤ 100 nM | – | –
3 | Cc1nc2c(F)c(-c3cccc(Cl)c3Cl)c(CCC#N)cc2c2c1cc([C@H]1C[C@H](n3cc([C@]45C[C@H](CN4)C5)nn3)CN1C(=O)C1CC1)n2[C@H]1[C@H]2CN[C@@H]1C2 [Example 274] | ≤ 100 nM | ≤ 100 nM | – | –
4 | COc1ncc(C(F)(F)F)cc1O[C@H]1C[C@H](c2cc3c(C)nc4c(F)c(-c5cccc(Cl)c5Cl)c(CCC#N)cc4c3n2[C@H]2[C@H]3CN[C@@H]2C3)N(C(=O)C2CC2)C1 [Example 451] | ≤ 100 nM | ≤ 100 nM | – | –
5 | Cc1cc(CO[C@H]2C[C@H](c3cc4c(C)nc5c(F)c(-c6cccc(Cl)c6Cl)c(CCC#N)cc5c4n3[C@H]3[C@H]4CN[C@@H]3C4)N(C(=O)C3CC3)[C@H]2C)ns1 [Example 212] | ≤ 100 nM | ≤ 100 nM | – | –
6 | Cc1nc2c(F)c(-c3cccc(Cl)c3Cl)c(CCC#N)cc2c2c1cc([C@H]1C[C@H](OCc3ccc(Cl)cc3F)CN1C(=O)C1CC1)n2[C@H]1[C@H]2CN[C@@H]1C2 [Example 155] | ≤ 100 nM | ≤ 100 nM | – | –
7 | Cc1nc2c(F)c(-c3cccc(Cl)c3Cl)c(CCC#N)cc2c2c1cc([C@H]1C[C@H](Oc3ccn(C(F)F)n3)CN1C(=O)C1CC1)n2[C@H]1[C@H]2CN[C@@H]1C2 [Example 340] | ≤ 100 nM | ≤ 100 nM | – | –
8 | Cc1nc2c(F)c(-c3cccc(Cl)c3Cl)c(CCC#N)cc2c2c1cc([C@H]1C[C@H](n3cc(C4CCCO4)nn3)CN1C(=O)C1CC1)n2[C@H]1C2CNC1C2 (stereo partly drawn) [Example 180] | ≤ 100 nM | ≤ 100 nM | – | –
9 | Cc1nc2c(F)c(-c3cccc(Cl)c3Cl)c(CCC#N)cc2c2c1cc([C@H]1C[C@H](OCc3cccnc3Cl)CN1C(=O)C1CC1)n2[C@H]1[C@H]2CN[C@@H]1C2 [Example 253] | ≤ 100 nM | ≤ 100 nM | – | –
10 | Cc1nc2c(F)c(-c3cccc(Cl)c3Cl)c(CCC#N)cc2c2c1cc([C@H]1C[C@H](n3cc(N4CCOCC4)cn3)CN1C(=O)C1CC1)n2[C@H]1[C@H]2CN[C@@H]1C2 [Example 428] | ≤ 100 nM | ≤ 100 nM | – | –
11 | Cc1nc(C)n([C@H]2C[C@H](c3cc4c(C)nc5c(F)c(-c6cccc(Cl)c6Cl)c(CCC#N)cc5c4n3[C@H]3[C@H]4CN[C@@H]3C4)N(C(=O)C3CC3)C2)n1 [Example 350] | ≤ 100 nM | ≤ 100 nM | – | –
12 | Cc1nc2c(F)c(-c3cccc(Cl)c3Cl)c(CCC#N)cc2c2c1cc([C@H]1C[C@H](Oc3cnccc3C#N)CN1C(=O)C1CC1)n2[C@H]1[C@H]2CN[C@@H]1C2 [Example 302] | ≤ 100 nM | ≤ 100 nM | – | –
13 | Cc1nc2c(F)c(-c3cccc(Cl)c3Cl)c(CCC#N)cc2c2c1cc([C@H]1C[C@H](n3cc(C#N)cn3)CN1C(=O)C1CC1)n2[C@H]1[C@H]2CN[C@@H]1C2 [Example 281] | ≤ 100 nM | ≤ 100 nM | – | –
14 | Cc1nc2c(F)c(-c3cccc(Cl)c3Cl)c(CCC#N)cc2c2c1cc([C@H]1C[C@H](Oc3nccs3)CN1C(=O)C1CC1)n2[C@H]1[C@H]2CN[C@@H]1C2 [Example 341] | ≤ 100 nM | ≤ 100 nM | – | –
15 | Cc1nnn([C@H]2C[C@H](c3cc4c(C)nc5c(F)c(-c6cccc(Cl)c6Cl)c(CCC#N)cc5c4n3[C@H]3[C@H]4CN[C@@H]3C4)N(C(=O)C3CC3)C2)n1 [Example 398] | ≤ 100 nM | ≤ 100 nM | – | –
16 | Cc1nc2c(F)c(-c3cccc(Cl)c3Cl)c(CCC#N)cc2c2c1cc([C@H]1C[C@H](Oc3ccc(=O)n(C)c3)CN1C(=O)C1CC1)n2[C@H]1[C@H]2CN[C@@H]1C2 [Example 420] | ≤ 100 nM | ≤ 100 nM | – | –

Row | Compound | IC50 (KRAS G12D; [1]) | IC50 (KRAS G12V; [2]) | IC50 (KRAS G12D; Table H, column G12D, for compounds isolated as several atropisomers/diastereoisomers the value for the most potent isomer is quoted, read-out: KRAS G12D exchange assay IC50) | IC50 (KRAS G12V; Table H, column G12V, for compounds isolated as several atropisomers/diastereoisomers the value for the most potent isomer is quoted, read-out: KRAS G12V exchange assay IC50)
17 | Cc1nc2c(F)c(-c3cccc(Cl)c3Cl)c(CCC#N)cc2c2c1cc([C@H]1C[C@H](n3cccn3)CN1C(=O)C1CC1)n2[C@H]1[C@H]2CN[C@@H]1C2 [Example 314] | ≤ 100 nM | ≤ 100 nM | – | –
18 | Cc1nc2c(F)c(-c3cccc(Cl)c3Cl)c(CCC#N)cc2c2c1cc([C@H]1C[C@H](n3nncc3Cc3ccccc3)CN1C(=O)C1CC1)n2[C@H]1[C@H]2CN[C@@H]1C2 [Example 160] | 100 to 1000 nM | ≤ 100 nM | – | –
19 | Cc1nc2c(F)c(-c3cccc(Cl)c3Cl)c(CCC#N)cc2c2c1cc([C@H]1C[C@H](Oc3ccc(N)nc3)CN1C(=O)C1CC1)n2[C@H]1[C@H]2CN[C@@H]1C2 [Example 296] | ≤ 100 nM | ≤ 100 nM | – | –
20 | CC(=O)N(C)Cc1cn([C@H]2C[C@H](c3cc4c(C)nc5c(F)c(-c6cccc(Cl)c6Cl)c(CCC#N)cc5c4n3[C@H]3[C@H]4CN[C@@H]3C4)N(C(=O)C3CC3)C2)nn1 [Example 271] | ≤ 100 nM | ≤ 100 nM | – | –
21 | Cc1nc2c(F)c(-c3cccc(Cl)c3Cl)c(CCC#N)cc2c2c1cc([C@H]1C[C@H](n3cc(C4CCCC4)nn3)CN1C(=O)C1CC1)n2[C@H]1[C@H]2CN[C@@H]1C2 [Example 183] | ≤ 100 nM | ≤ 100 nM | – | –
22 | Cc1nc2c(F)c(-c3cccc(Cl)c3Cl)c(CCC#N)cc2c2c1cc([C@H]1C[C@H](OCc3nsc4cc(F)ccc34)CN1C(=O)C1CC1)n2[C@H]1[C@H]2CN[C@@H]1C2 [Example 256] | ≤ 100 nM | ≤ 100 nM | – | –
23 | Cc1ncc(CO[C@H]2C[C@H](c3cc4c(C)nc5c(F)c(-c6cccc(Cl)c6Cl)c(CCC#N)cc5c4n3[C@H]3[C@H]4CN[C@@H]3C4)N(C(=O)C3CC3)C2)s1 [Example 90] | ≤ 100 nM | ≤ 100 nM | – | –
24 | Cc1nc2c(F)c(-c3cccc(Cl)c3Cl)c(CCC#N)cc2c2c1cc([C@H]1C[C@H](n3nnc(CO)c3C)CN1C(=O)C1CC1)n2[C@H]1[C@H]2CN[C@@H]1C2 [Example 326] | ≤ 100 nM | ≤ 100 nM | – | –
25 | Cc1nc2c(F)c(-c3cccc(Cl)c3Cl)c(CCC#N)cc2c2c1cc([C@H]1C[C@H](n3cc(C4(C)CCCCC4)nn3)CN1C(=O)C1CC1)n2[C@H]1[C@H]2CN[C@@H]1C2 [Example 66, 3-(1-((1R,4R,5S)-2-Azabicyclo[2.1.1]hexan-5-yl)-2-((2R,4S)-1-(cyclopropanecarbonyl)-4-(4-(1-methylcyclohexyl)-1H-1,2,3-triazol-1-yl)pyrrolidin-2-yl)-7-(2,3-dichlorophenyl)-6-fluoro-4-methyl-1H-pyrrolo[3,2-c]quinolin-8-yl)propanenitrile] | – | – | ≤ 100 nM | ≤ 100 nM
26 | Cc1nc2c(F)c(-c3cccc(Cl)c3Cl)c(CCC#N)cc2c2c1cc([C@H]1C[C@H](OCc3cc(C(F)(F)F)on3)CN1C(=O)C1CC1)n2[C@H]1[C@H]2CN[C@@H]1C2 [Example 361] | ≤ 100 nM | ≤ 100 nM | – | –
27 | Cc1nc2c(F)c(-c3cccc(Cl)c3Cl)c(CCC#N)cc2c2c1cc([C@H]1C[C@H](OC(C)c3nccs3)CN1C(=O)C1CC1)n2[C@H]1[C@H]2CN[C@@H]1C2 (stereo partly drawn) [Example 363] | ≤ 100 nM | ≤ 100 nM | – | –
28 | Cc1nc2c(F)c(-c3cccc(Cl)c3Cl)c(CCC#N)cc2c2c1cc([C@H]1C[C@H](Oc3ccccc3F)CN1C(=O)C1CC1)n2[C@H]1[C@H]2CN[C@@H]1C2 [Example 119] | ≤ 100 nM | ≤ 100 nM | – | –
29 | [2H]C([2H])(O[C@H]1C[C@H](c2cc3c(C)nc4c(F)c(-c5cccc(Cl)c5Cl)c(CCC#N)cc4c3n2[C@H]2[C@H]3CN[C@@H]2C3)N(C(=O)C2CC2)C1)c1nscc1C [Example 233] | ≤ 100 nM | ≤ 100 nM | – | –
30 | Cc1nc2c(F)c(-c3cccc(Cl)c3Cl)c(CCC#N)cc2c2c1cc([C@H]1C[C@H](n3nnc(-c4ccncc4)n3)CN1C(=O)C1CC1)n2[C@H]1[C@H]2CN[C@@H]1C2 (atropisomer, axis not shown) [Example 437] | ≤ 100 nM | ≤ 100 nM | – | –
31 | Cc1cccnc1CO[C@H]1C[C@H](c2cc3c(C)nc4c(F)c(-c5cccc(Cl)c5Cl)c(CCC#N)cc4c3n2[C@H]2[C@H]3CN[C@@H]2C3)N(C(=O)C2CC2)C1 [Example 150] | ≤ 100 nM | ≤ 100 nM | – | –
32 | Cc1nc2c(F)c(-c3cccc(Cl)c3Cl)c(CCC#N)cc2c2c1cc([C@H]1C[C@H](OC(=O)c3ccccc3)CN1C(=O)C1CC1)n2[C@H]1[C@H]2CN[C@@H]1C2 [Example 270] | ≤ 100 nM | – | – | –
